These results are taken from US5698556A, “Methotrexate analogs and methods of using same” (priority 1995, dated 1997).

The conditions of series [1]: compared with MTX; cited from earlier work.
The test system of another series is K562 cells. As to the kind of experiment: Growth inhibition of human leukemia cells (K562). The class given is cell-based. The settings on record: for IC50: Homo sapiens; for times more compound as compared with MTX required to inhibit cell growth by 50%: relative to MTX.
The target in a further series is T1, L. casei DHFR (Lacticaseibacillus casei, UniProt P00381).
T1 construct: purchased New England Enzyme Center (Boston, Mass.); host or cells: MTX-resistant L. casei
T1 sequence (P00381 whole entry): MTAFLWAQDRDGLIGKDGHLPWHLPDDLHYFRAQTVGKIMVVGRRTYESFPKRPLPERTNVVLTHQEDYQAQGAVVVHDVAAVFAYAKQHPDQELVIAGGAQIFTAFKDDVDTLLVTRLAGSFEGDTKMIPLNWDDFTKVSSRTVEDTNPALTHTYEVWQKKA
As to the kind of experiment: Inhibition of DHFR, spectrophotometric assay (L. casei DHFR). The class given is biochemical. The settings on record: pH 7.0, read-out: ID50 (drug concentration which inhibits enzyme activity by 50%). The procedure:
(§1) Tests were conducted to determine the ID50 value for methotrexate analogs of the present invention. The ID50 value is the drug concentration which inhibits enzyme activity by 50%. […] DHFR activity was measured as the decrease over time in absorbance at 340 nm.
(§2) DHFR was diluted prior to each experiment in 50 mM potassium phosphate buffer (pH 7.0) containing 0.1 mM NADPH and 0.1% BSA.
(§3) Inhibition studies were carried out by adding to a 1.0 ml cuvette the assay solution containing all components except dihydrofolate, and then incubating the solution for 2 minutes at room temperature. The absorbance of the solution at 340 nm was recorded immediately following the addition of dihydrofolate. The mixtures were then incubated at room temperature for 5 minutes, and the absorbance at 340 nm was again recorded. […] ID50 values were determined by interpolation from graphs of percent of inhibition plotted against drug concentration.

In the next series the target is T2, Chicken Liver DHFR (Gallus gallus, UniProt P00378).
T2 construct: purchased Sigma Chemical Co. (St. Louis, Mo.); host or cells: chicken liver
T2 sequence (P00378 1-189): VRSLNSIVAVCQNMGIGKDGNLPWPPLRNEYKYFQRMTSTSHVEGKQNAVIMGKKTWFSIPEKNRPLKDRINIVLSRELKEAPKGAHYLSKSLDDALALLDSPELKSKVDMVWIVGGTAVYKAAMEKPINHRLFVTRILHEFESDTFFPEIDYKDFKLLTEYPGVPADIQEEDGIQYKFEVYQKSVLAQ
As to the kind of experiment: Inhibition of DHFR, spectrophotometric assay (chicken liver DHFR). The class given is biochemical. The settings on record: for IC50: chicken liver DHFR, pH 7.0, read-out: ID50 (drug concentration which inhibits enzyme activity by 50%). The procedure: as §1, §2, §3

The next series deals with CCRF/CEM Cells. As to the kind of experiment: Growth inhibition of human leukemia cells (CCRF/CEM). The class given is cell-based. The settings on record: 120 hours continuous exposure. As for the experimental part: Two suspensions of human leukemia cell lines were employed in this study. […] Cells were maintained at 37° C. with 5% CO2 in air, and were cultured using standard sterile tissue culture techniques.
Prior to toxicity studies, cells were maintained 48 hours in the absence of added inhibitor. […] Inhibitor concentrations ranging from 10^-12 to 10^-4 M were added to the cultures except for a control culture, which contained no added drug. Cell counts were performed by hematometer counting during 120 hours of continuous exposure to the drugs. The IC50 value was obtained by interpolation from graphs of percent growth inhibition plotted against drug concentration.

Series [2] is described as follows: Metabolism in rabbit liver homogenate (formation of 7-OH-MTX). The class given is in vitro ADME, New Zealand white rabbit. The settings on record: pH 7.6. The procedure:
For these experiments, freshly isolated liver from a New Zealand white rabbit was homogenized in 400 ml of cold buffer of pH 7.6 consisting of 10 mM Tris-HCl, 25 mM sucrose and 10 mM MgCl2. The homogenate was centrifuged at 1000×g for 20 minutes at 4° C., and the resulting pellet was resuspended in about 14 ml of the same buffer. […] Two ml samples of the homogenate were removed at 10 minute intervals. Samples were boiled S minutes to denature the proteins, and then centrifuged to pelletize cell debris. To determine inhibitor and 7-OH-MTX levels, 100 μl of the supernatant was analyzed by HPLC. For HPLC analysis, a Perkin-Elmer 410 LC solvent delivery system and a 5-μm IBM ODS column (4.1×250 mm) with a Guard column were employed. The mobile phase consisted of 0.1M monobasic sodium phosphate and 0.1M Tris-HCl in methanol at a final pH of 7.6. […] Detector output was recorded and integrated by a Perkin-Elmer LCI 100 integrator.

For series [3] the following is noted: cited from earlier work.
The mark [4] stands for this setting: K562 cells, 120 hours continuous exposure, read-out: IC50.

Molecules are shown by their SMILES. Like-named read-outs stand apart in the source and are kept apart here.

Protocol for K562 cells: The IC50 value is the drug concentration which inhibits cancer cell growth by 50%.
Two suspensions of human leukemia cell lines were employed in this study. The myelogenous leukemia cell line K562 was cultured in RPMI 1640 (JRH Biosciences) containing 10% filtered fetal bovine serum (FBS; Irvine Scientific), and the lymphoblastic leukemia cell line CCRF/CEM was cultured in RPMI 1640 containing 20% FBS, 100 U/ml penicillin (GIBCO Laboratories, Grand Island, N.Y.), and 100 μg/ml streptomycin (GIBCO). Cells were maintained at 37° C. with 5% CO2 in air, and were cultured using standard sterile tissue culture techniques.
Prior to toxicity studies, cells were maintained 48 hours in the absence of added inhibitor. Logarithmically growing cells were inoculated at 1×10^4 cells/ml in tissue culture grade Petri dishes (35×10 mm), and, following a suitable recovery period, were treated with chemical agents. Inhibitor concentrations ranging from 10^-12 to 10^-4 M were added to the cultures except for a control culture, which contained no added drug. Cell counts were performed by hematometer counting during 120 hours of continuous exposure to the drugs. The IC50 value was obtained by interpolation from graphs of percent growth inhibition plotted against drug concentration.

`CN(Cc1cnc2nc(N)nc(N)c2n1)c1c(F)cc(C(=O)N[C@@H](CCC(=O)O)C(=O)O)cc1F` [3',5'-difluoroMTX]: the “antifolate antagonism / biological activity, in words” value in series [1] is given as “little or no increase in biological activity as compared with MTX”.
Regarding `CNc1nc2nc(N)nc(N)c2nc1CN(C)c1ccc(C(=O)N[C@@H](CCC(=O)O)C(=O)O)cc1` [7-CH3 NH-MTX, 4-amino-7-methylamino-N-10-methylpteroylglutamic acid], the IC50 was 300 nM in the series on K562 cells (setting [4]), 200 nM at L. casei DHFR, 300 nM at Chicken Liver DHFR and 300 nM in the series with CCRF/CEM Cells. The “times more compound as compared with MTX required to inhibit cell growth by 50%” value in the series on K562 cells (K562 and CCRF/CEM cells) is 25-40 times.
`CN(Cc1nc2c(N)nc(N)nc2nc1Cl)c1ccc(C(=O)N[C@@H](CCC(=O)O)C(=O)O)cc1` [7-Cl-MTX]: the IC50 worked out at 10000 nM in the series on K562 cells (setting [4]), 50000 nM at L. casei DHFR, 20000 nM on Chicken Liver DHFR and 10000 nM in the series on CCRF/CEM Cells.
As to `CN(Cc1nc2c(N)nc(N)nc2nc1F)c1ccc(C(=O)N[C@@H](CCC(=O)O)C(=O)O)cc1` [7-F-MTX], the IC50 in the series with K562 cells (setting [4]) is 850 nM; on L. casei DHFR it was 500 nM; on Chicken Liver DHFR, 1500 nM; in the series on CCRF/CEM Cells, 5000 nM.
For `CN(Cc1nc2c(N)nc(N)nc2nc1N=[N+]=[N-])c1ccc(C(=O)N[C@@H](CCC(=O)O)C(=O)O)cc1` [7-N3 -MTX], the IC50 with K562 cells (setting [4]) came out at 1000 nM; at L. casei DHFR, 200 nM; on Chicken Liver DHFR it was 400 nM; in the series on CCRF/CEM Cells, 2000 nM.
Regarding `CN(Cc1nc2c(N)nc(N)nc2nc1N)c1ccc(C(=O)N[C@@H](CCC(=O)O)C(=O)O)cc1` [7-NH2 -MTX, 4,7-diamino-N-10-methylpteroylglutamic acid], the IC50 in the series with K562 cells (setting [4]) came to 50 nM; on L. casei DHFR, 168 nM; at Chicken Liver DHFR it was 140 nM; in the series with CCRF/CEM Cells, 76 nM. In addition, the “ability to inhibit growth of leukemia cell lines, in words” value with K562 cells (K562 and CCRF/CEM cells) is reported as “still effective at inhibiting the growth of the leukemia cell lines”. In the series with K562 cells (K562 and CCRF/CEM cells), the “times more compound as compared with MTX required to inhibit cell growth by 50%” value was 6-7 times. The “effectiveness as DHFR inhibitor, in words” value at Chicken Liver DHFR (chicken liver and L. casei DHFR) is listed as “still relatively effective as a DHFR inhibitor”. In addition, the “metabolism to 7-OH-MTX, in words” value in series [2] was “not even a slight metabolism of 7-NH2 -MTX to 7-OH-MTX could be detected over an hour”.
As for `CC(C)Nc1nc2nc(N)nc(N)c2nc1CN(C)c1ccc(C(=O)N[C@@H](CCC(=O)O)C(=O)O)cc1` [7-NHCH(CH3)2 -MTX], the IC50 in the series with K562 cells (setting [4]) stood at 500 nM; at L. casei DHFR, 750 nM; at Chicken Liver DHFR, 500 nM; with CCRF/CEM Cells it was 5000 nM.
Turning to `CCOc1nc2nc(N)nc(N)c2nc1CN(C)c1ccc(C(=O)N[C@@H](CCC(=O)O)C(=O)O)cc1` [7-OC2 H5 -MTX], the IC50 with K562 cells (setting [4]) amounted to 850 nM; on L. casei DHFR, 1200 nM; on Chicken Liver DHFR, 2000 nM; in the series with CCRF/CEM Cells, 4000 nM.
In the same order, the values of `COc1nc2nc(N)nc(N)c2nc1CN(C)c1ccc(C(=O)N[C@@H](CCC(=O)O)C(=O)O)cc1` [7-OCH3 -MTX] are 450 nM, 1000 nM, 750 nM and 4500 nM.
In the same order, the values of `CC(C)Oc1nc2nc(N)nc(N)c2nc1CN(C)c1ccc(C(=O)N[C@@H](CCC(=O)O)C(=O)O)cc1` [7-OCH(CH3)2 -MTX] are 1000 nM, 670 nM, 200 nM and 6000 nM.
Regarding `CN(Cc1nc2c(N)nc(N)nc2nc1P(=O)(O)O)c1ccc(C(=O)N[C@@H](CCC(=O)O)C(=O)O)cc1` [7-P(O)(OH)2 -MTX], the IC50 in the series on K562 cells (setting [4]) amounted to 6000 nM; at L. casei DHFR, 15000 nM; on Chicken Liver DHFR, 10000 nM.
As to `Cc1nc2nc(N)nc(N)c2nc1CN(C)c1ccc(C(=O)N[C@@H](CCC(=O)O)C(=O)O)cc1` [7-methyl substituted MTX], the “antifolate antagonism / biological activity, in words” value in series [1] is reported as “impaired antifolate antagonism”.
Broadly, the amount remaining is what is left of the initial amount, in per cent. Read a high amount remaining as greater stability. As for `CN(Cc1cnc2nc(N)nc(N)c2n1)c1ccc(C(=O)N[C@@H](CCC(=O)O)C(=O)O)cc1` [MTX], the IC50 in the series with K562 cells (K562, 120 h) came to 8 nM. This compound also displayed an IC50 in the series on CCRF/CEM Cells of 11 nM. The “renal and hepatic toxicity, in words” value in series [3] (high dose regimen) is “associated with renal and hepatic toxicity”. For the same compound, the “conversion in vivo, in words” value in series [3] (man and monkeys) was “converted in vivo to 7-hydroxymethotrexate (7-OH-MTX)”. For the same compound, the “metabolism to 7-OH-MTX, in words” value in series [2] (over an hour, 37° C.) is on record as “substantially metabolized to 7-OH-MTX within an hour”. In series [2] (rabbit, liver homogenate), this compound had a metabolised at 10 min of about 50% and a share remaining at 1 h of under 25%.
